Laboratory results taken from patent US20230233477A1, “Bi2O3 NANOPARTICLES PREPARED BY THE TOP-DOWN ULTRASONICATION ROUTE AS A BROAD-[sequence] ANTIMICROBIAL TO OVERCOME DRUG RESISTANCE IN ANTIBIOTICS” (KENT STATE UNIVERSITY, priority 2022, published 2023).

Experiments:
[1] = system: PA; format: cell-based, Pseudomonas aeruginosa; conditions: sub-lethal concentration, after 13 days
Method: Drug resistance study. The MIC was determined using a broth dilution method. […] The as-prepared bacterial solutions were incubated at 37° C. for 24 h. After incubation, the MIC was determined as the lowest concentration that inhibited visible growth of the tested microorganisms with unaided eyes. This same procedure was done by serial passaging of the bacteria until 30 days. Later on, three types of mutant DSPA were prepared by treating with Ag NPs, ciprofloxacin and meropenem for 15 days.

[2] = system: DRPA (BAA-2108); assay: Checkerboard assay with meropenem against DRPA; format: cell-based; conditions: Pseudomonas aeruginosa, BAA2108, single agent
Method: The degree of synergism was determined using a checkerboard assay in a 96-well plate (FIG. 4b). […] Combinations of the two treatments were prepared using the 2-fold dilution method to determine the fractional inhibitory concentration (FIC; Table S2). The FIC index is used to determine whether two treatments are synergistic (χ≤0.5), additive (0.5<χ<4) or antagonistic (χ≥4).^38 Checkerboard assay.

MIC [2]	Compound	MIC increase (fold) [1]
	O=C(O)c1cn(C2CC2)c2cc(N3CCNCC3)c(F)cc2c1=O [ciprofloxacin]	32 fold
2 µg/mL	C[C@@H](O)[C@H]1C(=O)N2C(C(=O)O)=C(S[C@@H]3CN[C@H](C(=O)N(C)C)C3)[C@H](C)[C@H]12 [meropenem]	
